Results reported in patent US9981970B2, “Bicyclic ureas and thiadiazolidine-1, 1-dioxides as CETP inhibitors” (Merck Sharp & Dohme Corp., priority 2013, dated 2018).

Tests used:
[1] = target: T1, endogenous CETP from serum (Homo sapiens, UniProt P11597); test: RTA assay in 95% human serum (in vitro radioactive assay of CETP-catalyzed CE and TG transfer); type: biochemical; conditions: Table 1; data generally obtained using the RTA assay in 95% human serum; read-out: IC50
T1 construct: yielding a concentration of approximately 15 nM endogenous CETP in the assay; from tissue; host or cells: human serum
T1 sequence (P11597 18-493): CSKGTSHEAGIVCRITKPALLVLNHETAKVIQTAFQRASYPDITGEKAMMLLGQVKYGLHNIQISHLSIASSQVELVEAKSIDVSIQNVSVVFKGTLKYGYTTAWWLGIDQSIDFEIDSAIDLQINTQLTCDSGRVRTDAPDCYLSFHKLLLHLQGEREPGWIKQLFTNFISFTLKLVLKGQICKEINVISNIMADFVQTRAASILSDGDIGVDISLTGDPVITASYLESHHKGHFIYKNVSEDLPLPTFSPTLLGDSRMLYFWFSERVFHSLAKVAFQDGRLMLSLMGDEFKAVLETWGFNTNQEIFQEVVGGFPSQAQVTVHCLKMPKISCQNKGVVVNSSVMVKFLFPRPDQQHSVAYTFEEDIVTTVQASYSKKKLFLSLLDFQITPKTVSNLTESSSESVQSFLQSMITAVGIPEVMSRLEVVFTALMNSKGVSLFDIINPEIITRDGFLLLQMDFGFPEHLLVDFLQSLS
Source text: In Vitro Radioactive Assays of CETP-Catalyzed CE and TG Transfer (RTA Assay)
Reagents and sources are: [3H] cholesteryl oleate (GE #TRK.886), [3H] Triolein (Perkin-Elmer NET-431), Butylated hydroxyl toluene (Aldrich, #D4740-4), DOPC (Sigma, # P6354), Sodium Bromide (Fisher scientific #S255-500), PEG 8000 (Fisher, #BP233-1), and human HDL (Intracel Corp #RP-036).
Both assays measure the transfer of [3H] cholesteryl oleate or [3H] triolein from exogenous LDL to HDL.
Radiolabeled donor particles are generated by first combining 100 μl of 200 μM butylated hydroxyl toluene in CHCl3, 216 μL of 21.57 mM DOPC in EtOH, and either 500 μCi [3H]-triolein (Perkin Elmer #NET-431) or 500 μCi [3H]-cholesteryl oleate (GE #TRK886) in a glass tube. Reagents are mixed, dried under nitrogen, and then resuspended in 2 mL of 50 mM Tris, 27 μM EDTA at pH 7.4. After a brief vortex, the solution is sonicated until clear and mixed with 20 mL of fresh human serum. The mixture is incubated overnight at 37° C. The [3H] labeled LDL substrate is separated at 1.063 g/ml density by sequential ultracentrifugal flotation in NaBr according to the method of Havel, Eder, et al., 1955, and Chapman, Goldstein, et al., 1981. Once isolated the particles are dialyzed 3× in CETP buffer (50 mM Tris, pH 7.4, 100 mM NaCl, 1 mM EDTA). Human HDL is purchased from Intracel and used as the acceptor particles.
Transfer assays are performed in a 96-well v-bottom polypropylene plate. For the RTA using recombinant CETP (2% RTA), an assay cocktail is prepared with the final concentrations 128 μg/mL HDL, 20 nM rCETP, 2% human serum, and 1×CETP buffer. 1 μL of each test compound diluted in DMSO is added to 47 μL of assay cocktail per well and incubated at 37° C. for 1 hour. To initiate the transfer reaction, 2 μL radiolabeled LDL is added. After an additional 60 min of incubation at 37° C., the transfer action is terminated by precipitation of LDL with an equal volume of 20% WN PEG 8000. The plates are centrifuged at 2000 rpm for 30 minutes at 4° C. A 40 μL aliquot of the HDL-containing supernatant is transferred to a Packard Optiplate™ with 200 μL of MicroScint™ 20. After mixing, plates are counted by liquid scintillation. Counts present in the supernatant for blanks (wells containing only HDL acceptor, CETP buffer and DMSO) are subtracted from those containing test compounds and used to correct for non-specific transfer.
This is then combined with HDL and CETP buffer and the reaction proceeds as above and is terminated as described.
Comparison of the counts of samples with inhibitors to an uninhibited (DMSO only) positive control yield a percent inhibition. A plot of percent inhibition vs. log of inhibitor concentration, fit to a Sigmoidal 4 parameter equation is used to calculate IC50.
Starting materials are commercially available or are made using known procedures or as shown below. The examples may be synthesized according to the general schemes provided below and by using the synthetic intermediates that are described. […] When compounds of Formula I are mentioned herein, such compounds include compounds defined generically by Formula I and also the specific examples disclosed herein.

[2] = patients on anacetrapib with baseline statin therapy compared with patients treated with just a statin; cited from earlier work

| SMILES | IC50 [1] [nM] | decrease of LDL-C [2] [%] | increase of HDL-C [2] [%] |
| --- | --- | --- | --- |
| COc1ccc(-c2ccc(C(=O)O)cc2C)cc1-c1ccc(C(F)(F)F)cc1[C@@H]1CC[C@H]2[C@@H](c3ccnc(C(F)(F)F)c3)NC(=O)N12 [Example 19, 4′-methoxy-2-methyl-2″-{(1R,5S,7aS)-3-oxo-1-[2-(trifluoromethyl)pyridin-4-yl]hexahydro-1H-pyrrolo[1,2-c]imidazol-5-yl}-4″-(trifluoromethyl)-1,1′:3′,1″-terphenyl-4-carboxylic acid] | 4870 |  |  |
| COc1ccc(-c2ccc(C(=O)O)cc2C)cc1-c1cnc(C(F)(F)F)cc1[C@@H]1CC[C@H]2[C@@H](c3cc(C(F)(F)F)cc(C(F)(F)F)c3)NC(=O)N12 [Example 20, 3′-[4-{(1R,5S,7aS)-1-[3,5-bis(trifluoromethyl)phenyl]-3-oxohexahydro-1H-pyrrolo[1,2-c]imidazol-5-yl}-6-(trifluoromethyl)pyridin-3-yl]-4′-methoxy-2-methylbiphenyl-4-carboxylic acid] | 1570 |  |  |
| COc1ccc(-c2ccc(C(=O)O)cc2C)cc1-c1ccc(C(F)(F)F)cc1[C@@H]1CC[C@H]2[C@@H](c3cc(C(F)(F)F)cc(C(F)(F)F)c3)NS(=O)(=O)N12 [Example 22, 2″-{(3R,3aS,6S)-3-[3,5-bis(trifluoromethyl)phenyl]-1,1-dioxidohexahydropyrrolo[1,2-b][1,2,5]thiadiazol-6-yl}-4′-methoxy-2-methyl-4″-(trifluoromethyl)-1,1′,:3′,1″-terphenyl-4-carboxylic acid] | 984 |  |  |
| COc1ccc(C2CCC(C(=O)O)CC2)cc1-c1ccc(C(F)(F)F)cc1[C@@H]1CC[C@H]2[C@@H](c3cc(C(F)(F)F)cc(C(F)(F)F)c3)NS(=O)(=O)N12 (stereo partly drawn) [Example 23, 4-[2′-{(3R,3aS,6S)-3-[3,5-bis(trifluoromethyl)phenyl]-1,1-dioxidohexahydropyrrolo[1,2-b][1,2,5]thiadiazol-6-yl}-6-methoxy-4′-(trifluoromethyl)biphenyl-3-yl]cyclohexanecarboxylic acid] | 268 |  |  |
| COc1ncc(-c2ccc(C(=O)O)cc2C)cc1-c1ccc(C(F)(F)F)cc1[C@@H]1CC[C@H]2[C@@H](c3cc(F)cc(C(F)(F)F)c3)NS(=O)(=O)N12 [Example 24, 4-{5-[2-{(3R,3aS,6S)-3-[3-fluoro-5-(trifluoromethyl)phenyl]-1,1-dioxidohexahydropyrrolo[1,2-b][1,2,5]thiadiazol-6-yl}-4-(trifluoromethyl)phenyl]-6-methoxypyridin-3-yl}-3-methylbenzoic acid] | 1260 |  |  |
| COc1ccc(CCC(=O)O)cc1-c1ccc(C(F)(F)F)cc1[C@@H]1CC[C@H]2[C@@H](c3cc(F)cc(C(F)(F)F)c3)NS(=O)(=O)N12 [Example 25, 3-[2′-{(3R,3aS,6S)-3-[3-fluoro-5-(trifluoromethyl)phenyl]-1,1-dioxidohexahydropyrrolo[1,2-b][1,2,5]thiadiazol-6-yl}-6-methoxy-4′-(trifluoromethyl)biphenyl-3-yl]propanoic acid] | 3120 |  |  |
| COc1cc(F)c(C(C)C)cc1-c1ccc(C(F)(F)F)cc1CN1C(=O)O[C@H](c2cc(C(F)(F)F)cc(C(F)(F)F)c2)[C@@H]1C [anacetrapib] |  | 40 | 138 |
